Bridge positions count the residues as written; N and C are the ends. Square brackets hold non-standard residues; d marks the D form. Ends that are not written are not given here. Peptide text beside a SMILES is read from it. R8 = C=CCCCCCC[C@@](C)(N)C(=O)O; S5 = C=CCCC[C@](C)(N)C(=O)O Bounds are passed on as bounds.

One series deals with rabbit red blood cells. As to conditions: 4% rabbit red blood cells, 1 h, 37°C. On the procedure: Two hundred microliters of 4% rabbit red blood cells in a 96-well plate was added different concentrations of peptides. After 1 h of incubation at 37°C and following centrifugation, the release of hemoglobin was monitored by the absorbance at 450 nm of supernatant. Zero hemolysis was determined without adding any other reagents, and 100% hemolysis was determined in 10% Triton X-100. Hemolysis percentage hemolysis was calculated as: (Apeptide − Ablank)/(ATriton − Ablank) × 100%. All hemolysis determinations were conducted in three repeated experiments ([Deng et al., 2015]).

The next series concerns the target α-chymotrypsin (Bos taurus, UniProt P00766). Kind of series: in vitro. As to conditions: for Degradation during protease exposure: 1 h. How it is done: Peptides in DMSO solution (1 mM) was mixed with α-chymotrypsin in PBS buffer (0.5 ng/μl) containing 2 mM CaCl2 and incubated at 37°C. The percentage of peptide was measured by HPLC at 0, 5, 10, 20, 30, and 60 min([Wang et al., 2020]).

A short description of series [1]: Circular dichroism spectroscopy, percent helicity. In kind it is physicochemical. As to conditions: CD, TFE/water (1:1), 0.1 mg/ml, 20°C. On the procedure:
Peptides were dissolved in TFE/water (1:1, v/v, 0.1 mg/ml). CD data were recorded in 10-mm path length, a quartz cell at 20°C. Percent helicity was calculated by the following equation ([Wang et al., 2006]). α=[θ]222/[θ]max×100% [θ]222 is the molar ellipticity of 222 nm; [θ]max = (−44,000 + 250T) (1 − k/n), where k = 4, n is the numbers of amino acids, and T = 20°C.
(In general: CD spectra are sensitive to the conformation of chiral molecules.)

In another series the test system is MCF-7. Particulars: read-out: IC50 MCF-7; CCK-8, 48 h. On the procedure: (§1) MCF-7, HUH-7, U87, and Nthy-ori 3-1 cell lines were used to test cell viability. All the cell lines were cultured in a humid environment at 37°C with 5% CO2. The anticancer activity of B1 and its derivatives were evaluated by the CCK-8 reagent. All peptides tested were dissolved in DMSO and finally added to each well in 1‰ volume. The cells were seeded in a 96-well plate at a number of 5 × 10^3 cells per well. After overnight incubation, they were administered with different concentrations of peptides. Ten percent CCK-8 solution without FBS was added to each well after 48 h. After incubation at 37°C for 30 min, the optical density (OD) at 450 nm was recorded with a microplate reader ([Deng et al., 2015]).

For a further series, the system named is HUH-7. Particulars: read-out: IC50 HUH-7; CCK-8, 48 h. How it is done: as §1
Another series relates to U87. Particulars: read-out: IC50 U87; CCK-8, 48 h. On the procedure: as §1
Series [2] in a line: On-resin ring-closing olefin metathesis (all-hydrocarbon stapling, S5/S5 i,i+4 or R8/S5 i,i+7), first-generation Grubbs catalyst (3 equiv); then Fmoc removal, TFA cleavage, RP-HPLC. Particulars: the molecule shown is the open-chain precursor, 25.0 °C, 4.0 h.
The mark [3] stands for this setting: α-chymotrypsin (0.5 ng/μl) in PBS buffer.

On to `CC(C)C[C@H](NC(=O)[C@H](CCCCN)NC(=O)[C@]1(C)CCCC=CCCCCCC[C@@](C)(NC(=O)[C@@H](N)C(C)C)C(=O)N[C@@H](CCCNC(=N)N)C(=O)N[C@@H](Cc2ccccc2)C(=O)N[C@@H](CCCCN)C(=O)N[C@@H](CCCCN)C(=O)N[C@@H](Cc2ccccc2)C(=O)N[C@@H](Cc2ccccc2)C(=O)N1)C(=O)N[C@@H](CCCCN)C(=O)N[C@@H](CCCCN)C(=O)N[C@@H](CC(C)C)C(=O)N[C@H](C(N)=O)C(C)C` [B1-L-5, VR8RFKKFFS5KLKKLV-NH2] (H-V[R8]RFKKFF[S5]KLKKLV-NH2; staple 2-9; N-terminus assumed), for which the “HC50, half hemolysis concentration” value in the series with rabbit red blood cells is >80 µM. The half-life (usually the time in which the quantity being followed falls by half) on α-chymotrypsin (setting [3]) was > 60 min. In addition, the “Helicity (%)” value in series [1] turned out to be 24.8%. In addition, the IC50 (as a rule, the point on the concentration scale where inhibition reaches its midpoint) with MCF-7 was 14 ± 0.73 µM; in the series on HUH-7, 13.8 ± 1.53 µM; in the series with U87 it was 14.3 ± 2.35 µM.

For `CC(C)C[C@H](NC(=O)[C@H](CCCCN)NC(=O)[C@]1(C)CCCC=CCCC[C@](C)(NC(=O)[C@H](Cc2ccccc2)NC(=O)[C@H](CCCNC(=N)N)NC(=O)[C@H](CCCCN)NC(=O)[C@@H](N)C(C)C)C(=O)N[C@@H](CCCCN)C(=O)N[C@@H](Cc2ccccc2)C(=O)N[C@@H](Cc2ccccc2)C(=O)N1)C(=O)N[C@@H](CCCCN)C(=O)N[C@@H](CCCCN)C(=O)N[C@@H](CC(C)C)C(=O)N[C@H](C(N)=O)C(C)C` [B1-L-2, VKRFS5KFFS5KLKKLV-NH2] (H-VKRF[S5]KFF[S5]KLKKLV-NH2; staple 5-9; N-terminus assumed), the “HC50, half hemolysis concentration” value in the series on rabbit red blood cells is >80 µM. Moreover, the half-life at α-chymotrypsin (setting [3]) was > 60 min. The “Helicity (%)” value in series [1] was found to be 35.5%. Further, the half-inhibitory concentration (IC50) is 6.59 ± 0.42 µM in the series with MCF-7, 6.18 ± 0.63 µM in the series with HUH-7 and 8.86 ± 1.43 µM in the series with U87.

Turning to `C=CCCC[C@](C)(NC(=O)[C@H](CCCNC(=N)NS(=O)(=O)c1c(C)c(C)c2c(c1C)CC(C)(C)O2)NC(=O)[C@H](Cc1ccccc1)NC(=O)[C@H](Cc1ccccc1)NC(=O)[C@](C)(CCCC=C)NC(=O)[C@H](CCCCNC(=O)OC(C)(C)C)NC(=O)[C@H](Cc1ccccc1)NC(=O)[C@H](CCCNC(=N)NS(=O)(=O)c1c(C)c(C)c2c(c1C)CC(C)(C)O2)NC(=O)[C@H](CCCCNC(=O)OC(C)(C)C)NC(=O)[C@@H](NC(=O)OCC1c2ccccc2-c2ccccc21)C(C)C)C(=O)N[C@@H](CC(C)C)C(=O)N[C@@H](CCCCNC(=O)OC(C)(C)C)C(=O)N[C@@H](CCCCNC(=O)OC(C)(C)C)C(=O)N[C@@H](CC(C)C)C(=O)N[C@H](C(N)=O)C(C)C`, the ring closure, overall yield in series [2] (21-membered ring, 1,2-dichloroethane (dry)) came to 66%.

On to `C=CCCCCCC[C@@](C)(NC(=O)[C@@H](NC(=O)OCC1c2ccccc2-c2ccccc21)C(C)C)C(=O)N[C@@H](CCCNC(=N)NS(=O)(=O)c1c(C)c(C)c2c(c1C)CC(C)(C)O2)C(=O)N[C@@H](Cc1ccccc1)C(=O)N[C@@H](CCCCNC(=O)OC(C)(C)C)C(=O)N[C@@H](CCCCNC(=O)OC(C)(C)C)C(=O)N[C@@H](Cc1ccccc1)C(=O)N[C@@H](Cc1ccccc1)C(=O)N[C@@](C)(CCCC=C)C(=O)N[C@@H](CCCCNC(=O)OC(C)(C)C)C(=O)N[C@@H](CC(C)C)C(=O)N[C@@H](CCCCNC(=O)OC(C)(C)C)C(=O)N[C@@H](CCCCNC(=O)OC(C)(C)C)C(=O)N[C@@H](CC(C)C)C(=O)N[C@H](C(N)=O)C(C)C`, for which the ring closure, overall yield in series [2] (33-membered ring, 1,2-dichloroethane (dry)) amounted to 62%.

`CC(C)C[C@H](NC(=O)[C@H](CCCCN)NC(=O)[C@H](CCCCN)NC(=O)[C@H](CC(C)C)NC(=O)[C@]1(C)CCCC=CCCC[C@](C)(NC(=O)[C@H](CCCCN)NC(=O)[C@H](Cc2ccccc2)NC(=O)[C@H](CCCNC(=N)N)NC(=O)[C@H](CCCCN)NC(=O)[C@@H](N)C(C)C)C(=O)N[C@@H](Cc2ccccc2)C(=O)N[C@@H](Cc2ccccc2)C(=O)N[C@@H](CCCNC(=N)N)C(=O)N1)C(=O)N[C@H](C(N)=O)C(C)C` [B1-L-3, VKRFKS5FFRS5LKKLV-NH2] (H-VKRFK[S5]FFR[S5]LKKLV-NH2; staple 6-10; N-terminus assumed): in the series on rabbit red blood cells, the “HC50, half hemolysis concentration” value is >80 µM. The half-life at α-chymotrypsin (setting [3]) was > 60 min. In addition, the “Helicity (%)” value in series [1] amounted to 37%. Also, the IC50 in the series on MCF-7 stood at 5.48 ± 0.89 µM; with HUH-7 it was 5.96 ± 0.54 µM; with U87, 3.59 ± 1.2 µM.

Regarding `CC(C)C[C@H](NC(=O)[C@H](CCCCN)NC(=O)[C@H](CCCNC(=N)N)NC(=O)[C@H](Cc1ccccc1)NC(=O)[C@H](Cc1ccccc1)NC(=O)[C@]1(C)CCC/C=C\CCC[C@](C)(NC(=O)[C@@H](N)C(C)C)C(=O)N[C@@H](CCCNC(=N)N)C(=O)N[C@@H](Cc2ccccc2)C(=O)N[C@@H](CCCCN)C(=O)N1)C(=O)N[C@@H](CCCCN)C(=O)N[C@@H](CCCCN)C(=O)N[C@@H](CC(C)C)C(=O)N[C@H](C(N)=O)C(C)C` [B1-L-1, VS5RFKS5FFRKLKKLV-NH2] (H-V[S5]RFK[S5]FFRKLKKLV-NH2; staple (Z) 2-6), the half-life at α-chymotrypsin (α-chymotrypsin) is > 60 min. In series [1], the “Helicity (%)” value is given as 47.2%.

As for `CC(C)C[C@@H]1NC(=O)[C@H](CCCCN)NC(=O)[C@@](C)(NC(=O)[C@H](Cc2ccccc2)NC(=O)[C@H](Cc2ccccc2)NC(=O)[C@H](CCCCN)NC(=O)[C@H](CCCCN)NC(=O)[C@H](Cc2ccccc2)NC(=O)[C@H](CCCNC(=N)N)NC(=O)[C@H](CCCCN)NC(=O)[C@@H](N)C(C)C)CCCC=CCCC[C@@](C)(C(=O)N[C@@H](CC(C)C)C(=O)N[C@H](C(N)=O)C(C)C)NC(=O)[C@H](CCCCN)NC1=O` [B1-L-4, VKRFKKFFS5KLKS5LV-NH2] (H-VKRFKKFF[S5]KLK[S5]LV-NH2; staple 9-13; N-terminus assumed), the “HC50, half hemolysis concentration” value in the series on rabbit red blood cells is >80 µM. Also, the half-life at α-chymotrypsin (setting [3]) is > 60 min. In addition, the “Helicity (%)” value in series [1] worked out at 35%. The IC50 is 15.2 ± 1.02 µM in the series with MCF-7, 13.4 ± 1.92 µM in the series on HUH-7 and 17.9 ± 3.23 µM with U87.

Consider `CC(C)C[C@H](NC(=O)[C@H](CCCCN)NC(=O)[C@]1(C)CCCC=CCCCCCC[C@@](C)(NC(=O)[C@H](Cc2ccccc2)NC(=O)[C@H](CCCNC(=N)N)NC(=O)[C@H](CCCCN)NC(=O)[C@@H](N)C(C)C)C(=O)N[C@@H](CCCCN)C(=O)N[C@@H](Cc2ccccc2)C(=O)N[C@@H](Cc2ccccc2)C(=O)N[C@@H](CCCNC(=N)N)C(=O)N[C@@H](CCCCN)C(=O)N[C@@H](CC(C)C)C(=O)N1)C(=O)N[C@H](C(N)=O)C(C)C` [B1-L-6, VKRFR8KFFRKLS5KLV-NH2] (H-VKRF[R8]KFFRKL[S5]KLV-NH2; staple 5-12; N-terminus assumed), for which, in the series with rabbit red blood cells, the “HC50, half hemolysis concentration” value is >80 µM. At α-chymotrypsin (setting [3]), the half-life came to 55.3 min. Besides, the “Helicity (%)” value in series [1] worked out at 39.8%. The IC50 in the series on MCF-7 stood at 5.15 ± 1.04 µM; with HUH-7 it was 5.89 ± 0.43 µM; in the series on U87, 4.58 ± 0.93 µM.

In the case of “VKRFKKFFRKLKKLV-NH2 [B1-Leu, VKRFKKFFRKLKKLV-NH2]”, the “HC50, half hemolysis concentration” value in the series on rabbit red blood cells is >80 µM. On α-chymotrypsin (setting [3]), this compound yielded a half-life of 8.5 min. Moreover, on α-chymotrypsin (α-chymotrypsin), the “Degradation during protease exposure” value is reported as “completely degraded”. In addition, the “Helicity (%)” value in series [1] is given as 23.5%. For the same compound, the IC50 with MCF-7 came out at 13.4 ± 0.53 µM; in the series on HUH-7 it was 11.8 ± 0.72 µM; in the series with U87, 16.2 ± 3.32 µM.

With `CC(C)C[C@@H]1NC(=O)[C@H](CCCCN)NC(=O)[C@H](CCCNC(=N)N)NC(=O)[C@H](Cc2ccccc2)NC(=O)[C@H](Cc2ccccc2)NC(=O)[C@](C)(NC(=O)[C@H](CCCCN)NC(=O)[C@H](Cc2ccccc2)NC(=O)[C@H](CCCNC(=N)N)NC(=O)[C@H](CCCCN)NC(=O)[C@@H](N)C(C)C)CCCCCCC=CCCC[C@@](C)(C(=O)N[C@@H](CC(C)C)C(=O)N[C@H](C(N)=O)C(C)C)NC(=O)[C@H](CCCCN)NC1=O` [B1-L-7, VKRFKR8FFRKLKS5LV-NH2] (H-VKRFK[R8]FFRKLK[S5]LV-NH2; staple 6-13; N-terminus assumed), the “HC50, half hemolysis concentration” value in the series on rabbit red blood cells is >80 µM. The half-life on α-chymotrypsin (setting [3]) is > 60 min. Also, the “Helicity (%)” value in series [1] was 31.6%. The IC50 with MCF-7 is 13.4 ± 1.22 µM; with HUH-7 it was 7.49 ± 1.2 µM; with U87 it was 12.7 ± 1.63 µM.

For “VKRFKKFFRKLKKSV-NH2 [B1, VKRFKKFFRKLKKSV-NH2, reference compound]”, the “HC50, half hemolysis concentration” value with rabbit red blood cells is >80 µM. Moreover, the half-life at α-chymotrypsin (setting [3]) worked out at 8.3 min. For the same compound, the “Degradation during protease exposure” value on α-chymotrypsin (α-chymotrypsin) is reported as “completely degraded”. Moreover, in series [1], the “Helicity (%)” value is 8.9%. The IC50 in the series on MCF-7, with HUH-7 and in the series on U87 was > 50 µM each time.

For the origin of these results see publication PMC9021566, “Design, Synthesis, and Antitumor Activity Study of All-Hydrocarbon-Stapled B1-Leu Peptides” (Frontiers in Chemistry, 2022).
